Reference: patent US9206206B2, “Oxidized lipid compounds and uses thereof” (Vascular Biogenics Ltd., priority 2008, dated 2015)
Values joined by “and” are separate entries in the source; they are usually repeats but may differ in a detail not shown here. Identical values can stand only once. Like-named read-outs stand apart in the source and are kept apart here.

What was measured:
[1] = test system: tyrosine phosphorylation in primary macrophages; experiment: Tyrosine phosphorylation assay in primary macrophages (Western blot); format: cell-based, mouse
Experimental: (§1) Tyrosine Phosphorylation Assay: Tyrosine phosphorylation in macrophages or bone marrow-derived cells (BMDCs) of mice was assayed. Mouse primary macrophages were isolated from the peritoneum of 7-8 week old C57BL/6 female mice following thioglycollate stimulation. […] Mouse primary bone marrow-derived cells were isolated by flushing bone marrow out of the femur and tibia of female SJL mice using cold RPMI-1640. […] Cells were then washed, resuspended in the same buffer and depleted of B and T cells on a Midi-Macs separation unit through a LD or LS column (Miltenyi Biotech). […] The medium was replaced every other day. […] Proteins with phosphorylated tyrosine were then observed by Western blot, using a monoclonal anti-phosphotyrosine antibody. Western blotting for ERK1/2 or α-tubulin was performed as a control for protein loading.

[2] = test system: tyrosine phosphorylation in bone marrow-derived cells; experiment: Tyrosine phosphorylation assay in bone marrow-derived cells (Western blot); format: cell-based, mouse
Experimental: as §1

[3] = test system: mouse peritoneal macrophages; experiment: In vitro toxicity assay; format: cell-based; conditions: for LD50: crystal violet cell number
Experimental: Thioglycollate-elicited mouse peritoneal macrophages were washed, counted and seeded (2×10^5 to 3×10^5 cells per well in 24-well plates) in triplicate wells in medium containing RPMI-1640, L-glutamine, 10% FBS and antibiotics (penicillin/streptomycin). After a recovery period of 24 hours, the tested compound (or controls) was added to the cell medium at doses of 2, 10, 20, 50, 100 or 150 μg/ml, keeping the added volume equal in all treatments by complementing the volume with solvent.
Following addition of the compounds, the cells were incubated for an additional 24 hours, after which the cells were washed, fixed with a solution of 10% methanol/10% acetic acid and stained with crystal violet (0.4% in 20% ethanol). Cell numbers were measured by determining optical density at 595 nm. Cells incubated with vehicle (PBS with 1% ethanol) were used as a control, to which cell numbers in treated samples were normalized.
Data are presented as mean±standard deviation. Statistical significance relative to vehicle-treated cells was calculated using a student's t-test, with p-values of less than 0.05 being considered as indicating statistical significance.

IL12/23 p40 = experiment: In vitro IL12/23p40 production assay; format: cell-based, mouse; conditions: bone marrow-derived cells
Experimental: In Vitro IL12/23p40 Production Assay:
Bone marrow derived cells (BMDCs) were obtained from the femur and tibia of female C57BL mice, cultured, and seeded at a concentration of 10^6 cells/ml 5-6 days post-culturing, as described hereinabove for the tyrosine phosphorylation assay.
The tested compound was then added to the cells for 1 hour at a concentration of 1, 2.5, 5, 10 or 20 μg/ml. The cells were activated for IL12/23p40 production by incubation for 24 hours with 10 μg/ml peptidoglycan (PGN). Cytokine production from the supernatant was measured by ELISA. Activated cells without the tested compound were used as the control.

[4] = peritoneal macrophages, 24 hours
[5] = compound 1, 2.5, 5, 10 or 20 μg/ml for 1 hour, then 10 μg/ml peptidoglycan 24 hours, ELISA
[6] = peritoneal macrophages, 24 hours, doses 2-150 μg/ml
[7] = peritoneal macrophages, 24 hours, only one of two experiments
[8] = peritoneal macrophages, 24 hours, up to 150 μg/ml

1-(2-octyl)dodecyl-2-(4-carboxy)butyl-glycero-3-phosphocholine [VB-221]
phosphotyrosine levels ([1]; 5 ng/ml (8 μM)): induction of tyrosine phosphorylation
phosphotyrosine levels ([1]; 10 ng/ml (16 μM)): induction of tyrosine phosphorylation
phosphotyrosine levels ([1]; 20 ng/ml): induction of tyrosine phosphorylation

1-(2-octyl)dodecyl-2-(4-carboxy)butyl-glycero-3-phosphoethanolamine [VB-222]
phosphotyrosine levels ([1]; 10 μg/ml, 10 minutes): induction of tyrosine phosphorylation
phosphotyrosine levels ([1]; 20 μg/ml, 10 minutes): induction of tyrosine phosphorylation

CCCCCCCCCCCCCCCCOCC(COP(=O)([O-])OCC[N+](C)(C)C)OCCCCCCC(=O)O (racemic) [racemic CI-203, 1-hexadecyl-2-(6-carboxy)hexanyl-glycero-3-phosphocholine]
phosphotyrosine levels ([2]; 20 μg/ml (33 μM)): caused a reduction in phosphotyrosine levels

CCCCCCCCCCCCCCCCSCC(COP(=O)([O-])OCC[N+](C)(C)C)OCCCCC(=O)O (centres unmarked) [1-S-CI-201, 1-S-hexadecyl-2-(4-carboxy)butyl-glycero-3-phosphocholine]
phosphotyrosine levels ([1]; 10 μg/ml, 10 minutes): little effect, if any
phosphotyrosine levels ([1]; 20 μg/ml, 10 minutes): caused a reduction in phosphotyrosine levels

CCCCCCCCCCCCCCCCSCC(COP(=O)(O)OCCN)OCCCCC(=O)O (centres unmarked) [1-S-CI-202, 1-S-hexadecyl-2-(4-carboxy)butyl-glycero-3-phosphoethanolamine]
phosphotyrosine levels ([1]; 10 μg/ml, 10 minutes): caused an increase in phosphotyrosine levels
phosphotyrosine levels ([1]; 20 μg/ml, 10 minutes): caused a reduction in phosphotyrosine levels

CCCCCCCCCCCCCCCCOC[C@H](COP(=O)([O-])OCC[N+](C)(C)C)OCCCCCCC(=O)O [(R)-CI-203, (R)-1-hexadecyl-2-(6-carboxy)hexanyl-sn-glycero-3-phosphocholine]
phosphotyrosine levels ([2]; 20 μg/ml (33 μM)): caused a reduction in phosphotyrosine levels

CCCCCCCCCCCCCCCCOCC(COP(=O)(O)O)OCCCCC(=O)O (centres unmarked) [CI-201-PA, 1-hexadecyl-2-(4-carboxy)butyl-glycero-3-phosphate]
dose at which (significant) toxicity was detected ([3]; mouse, 24 h): ≥ 20 µg/mL
dose at which toxicity was detected in only one experiment ([3]; mouse, 24 h): 10 µg/mL
LD50 [3, 4]: approximately 50 μg/ml

CCCCCCCCCCCCCCCCOCC(COP(=O)([O-])OCC[N+](C)(C)C)OCCCCCCC(=O)O (centres unmarked) [CI-203, 1-Hexadecyl-2-(6-carboxy)hexanyl-glycero-3-phosphocholine]
production of IL12/23 p40 (IL12/23 p40; [5]): inhibited production of IL12/23 p40 by bone marrow-derived cells in a dose-dependent manner
dose at which (significant) toxicity was detected [3, 6]: 100 µg/mL
phosphotyrosine levels ([2]; 1 μg/ml (1.7 μM)): no apparent effect

CCCCCCCCCCCCCCCCOCC(COP(=O)([O-])OCC[N+](C)(C)C)OCCCC(=O)O (centres unmarked) [CI-205, 1-hexadecyl-2-(3-carboxy)propyl-glycero-3-phosphocholine]
dose at which (significant) toxicity was detected [3, 6]: 100 µg/mL
dose at which toxicity was detected in only one experiment [3, 7]: 20 to 50 µg/mL
phosphotyrosine levels ([1]; 20 μg/ml, 10 minutes): causes reduction in phosphotyrosine levels

CCCCCCCCCCCCCCCCOCC(COP(=O)(O)OCCN)OCCCC(=O)O (centres unmarked) [CI-206, 1-hexadecyl-2-(3-carboxy)propyl-glycero-3-phosphoethanolamine]
dose at which (significant) toxicity was detected ([3]; mouse, 24 h): ≥ 50 µg/mL
phosphotyrosine levels ([1]; 20 μg/ml, 10 minutes): causes reduction in phosphotyrosine levels

CCCCCCCCCCCCCCCCOCC(COP(=O)([O-])OCC[N+](C)(C)C)OCCCCC(=O)OC (centres unmarked) [CI-208, 1-hexadecyl-2-(4-methylcarboxy)butyl-glycero-3-phosphocholine]
dose at which toxicity was detected in only one experiment ([3]; mouse, 24 h): 20 µg/mL
phosphotyrosine levels ([1]; 20 ng/ml): causes a reduction in phosphotyrosine levels, which is stronger than the reduction caused by treatment with 20 ng/ml of the CI-201 control

CCCCCCCCCCCCOCC(COP(=O)([O-])OCC[N+](C)(C)C)OCCCCC(=O)O (centres unmarked) [CI-209, 1-dodecyl-2-(4-carboxy)butyl-glycero-3-phosphocholine]
production of IL12/23 p40 (IL12/23 p40; [5]): inhibited production of IL12/23 p40 by bone marrow-derived cells in a dose-dependent manner
LD50 [3, 4]: above 150 μg/ml and > 286 μM
toxicity within the range of tested doses [3, 8]: toxicity of CI-209 was not observed at any of the tested doses
phosphotyrosine levels ([1]; 20 μg/ml, 10 minutes): induced an increase in phosphotyrosine levels

CCCCCCCCCCCCCCCCOCC(COP(=O)(O)OCCNC(=O)CCCC(=O)O)OCCCCC(=O)O (centres unmarked) [CI-210, 1-hexadecyl-2-(4-carboxy)butyl-glycero-3-phosphoethanolamine-N-glutaric acid]
production of IL12/23 p40 (IL12/23 p40; [5]): inhibited production of IL12/23 p40 by bone marrow-derived cells in a dose-dependent manner
dose at which (significant) toxicity was detected ([3]; mouse, 24 h): ≥ 100 µg/mL
dose at which significant toxicity was observed ([3]; mouse, 24 h): ≥ 156.6 µM
LD50 [3, 4]: approximately 150 μg/ml and ~235 μM
phosphotyrosine levels ([1]; 20 μg/ml, 10 minutes): induced an increase in phosphotyrosine levels

C[N+](C)(C)CCOP(=O)([O-])OCC(COCCCCCCCCCCCCCCCC(=O)O)OCCCCC(=O)O (centres unmarked) [CI-213, 1-(15′-carboxy)pentadecyl-2-(4-carboxy)butyl-glycero-3-phosphocholine]
dose at which a significant decrease in cell number was detected in only one experiment ([3]; peritoneal macrophages, 24 hours, only one experiment): 163.5 µM
dose at which toxicity was detected in only one experiment [3, 7]: 100 µg/mL
toxicity within the range of tested doses [3, 8]: did not clearly exhibit significant toxicity within the range of tested doses

NCCOP(=O)(O)OCC(COCCCCCCCCCCCCCCCC(=O)O)OCCCCC(=O)O (centres unmarked) [CI-214, 1-(15′-carboxy)pentadecyl-2-(4-carboxy)butyl-glycero-3-phosphoethanolamine]
toxicity within the range of tested doses [3]: did not clearly exhibit significant toxicity within the range of tested doses
dose at which a significant decrease in cell number was detected in only one experiment ([3]; mouse, 24 h): 175.5 µM
dose at which toxicity was detected in only one experiment ([3]; mouse, 24 h): 100 µg/mL

CCCCCCCCCCCCCCCCCCOCC(COP(=O)([O-])OCC[N+](C)(C)C)OCCCCC(=O)O (centres unmarked) [CI-215, 1-octadecyl-2-(4-carboxy)butyl-glycero-3-phosphocholine]
phosphotyrosine levels ([1]; 10 μg/ml, 10 minutes): induced an increase in phosphotyrosine levels
phosphotyrosine levels ([1]; 20 μg/ml, 10 minutes): caused a decrease in phosphotyrosine levels

CCCCCCCCCCCCCCCCCCOCC(COP(=O)(O)OCCN)OCCCCC(=O)O (centres unmarked) [CI-216, 1-octadecyl-2-(4-carboxy)butyl-glycero-3-phosphoethanolamine]
production of IL12/23 p40 (IL12/23 p40; 20 μg/ml): inhibited production of IL12/23 p40 by bone marrow-derived cells
phosphotyrosine levels ([1]; 10 μg/ml, 10 minutes): induction of tyrosine phosphorylation
phosphotyrosine levels ([1]; 20 μg/ml, 10 minutes): reduction in phosphotyrosine levels

CCCCCCCCCCCCCCCCOCC(COP(=O)([O-])OCC[N+](C)(C)C)OCCC(=O)O (centres unmarked) [CI-217, 1-Hexadecyl-2-(2-carboxy)ethyl-glycero-3-phosphocholine]
phosphotyrosine levels ([1]; 10 μg/ml, 10 minutes): little effect
phosphotyrosine levels ([1]; 20 μg/ml, 10 minutes): caused a reduction in phosphotyrosine levels

CCCCCCCCCCCCCCCCCCCCOCC(COP(=O)([O-])OCC[N+](C)(C)C)OCCCCC(=O)O (centres unmarked) [CI-219, 1-eicosanyl-2-(4-carboxy)butyl-glycero-3-phosphocholine]
phosphotyrosine levels ([1]; 10 μg/ml, 10 minutes): little effect, if any
phosphotyrosine levels ([1]; 20 μg/ml, 10 minutes): caused a reduction in phosphotyrosine levels

CCCCCCCCCCCCCCCCCCCCOCC(COP(=O)(O)OCCN)OCCCCC(=O)O (centres unmarked) [CI-220, 1-eicosanyl-2-(4-carboxy)butyl-glycero-3-phosphoethanolamine]
phosphotyrosine levels ([1]; 10 μg/ml, 10 minutes): little effect, if any
phosphotyrosine levels ([1]; 20 μg/ml, 10 minutes): caused a reduction in phosphotyrosine levels

CCCCCCCCCCCCCCCCOCC(COP(=O)(O)OCC(N)C(=O)O)OCCCCC(=O)O (centres unmarked) [VB-223, 1-hexadecyl-2-(4-carboxy)butyl-glycero-3-phosphoserine]
phosphotyrosine levels ([1]; 1 μg/ml, 10 minutes): perhaps also
phosphotyrosine levels ([1]; 5 μg/ml, 10 minutes): induction of tyrosine phosphorylation
phosphotyrosine levels ([1]; 10 μg/ml, 10 minutes): induction of tyrosine phosphorylation
phosphotyrosine levels ([1]; 20 μg/ml, 10 minutes): induction of tyrosine phosphorylation

CCCCCCCCCCCCCCCCOCC(COP(=O)([O-])OCC[N+](C)(C)C)OCCCCC(OCC)OCC (centres unmarked) [diEtAc, 1-hexadecyl-2-(5′,5′-diethoxypentyl)-glycero-3-phosphocholine]
dose at which (significant) toxicity was detected ([3]; mouse, 24 h): ≥ 20 µg/mL
dose at which toxicity was detected in only one experiment ([3]; mouse, 24 h): 10 µg/mL
